According to US7524869B2, “Taxanes having a C10 ester substituent” (Florida State University Research Foundation, Inc., priority 2000, dated 2009):

test system: HCT116; test: In vitro cytotoxicity measured by the cell colony formation assay; assay type: cell-based; details: HCT116 cells, 72 h drug incubation, colonies counted after 7 days; ID50 = drug concentration producing 50% inhibition of colony formation; read-out: IN VITRO ID 50 (nm) HCT116

`CC(=O)OC12COC1CC(O)C1(C)C(=O)C(OC(=O)c3cccs3)C3=C(C)C(OC(=O)C(O)C(NC(=O)OC(C)(C)C)c4ccncc4)CC(O)(C(OC(=O)c4ccccc4)C21)C3(C)C` (centres unmarked) [Compound 1954] and `CC(=O)OC12COC1CC(O)C1(C)C(=O)C(OC(=O)c3ccco3)C3=C(C)C(OC(=O)C(O)C(NC(=O)OC(C)(C)C)c4ccncc4)CC(O)(C(OC(=O)c4ccccc4)C21)C3(C)C` (centres unmarked) [Compound 2132] cannot be ordered by IC50: under 1 nM for the first, under 1 nM for the second.

`C/C=C/C(=O)O[C@H]1C(=O)[C@@]2(C)C([C@H](OC(=O)c3ccccc3)[C@]3(O)C[C@H](OC(=O)[C@H](O)[C@@H](NC(=O)OC(C)(C)C)c4ccco4)C(C)=C1C3(C)C)[C@]1(OC(C)=O)CO[C@@H]1C[C@@H]2O` (some centres unmarked) [Compound 2379] and `CC(=O)OC12COC1CC(O)C1(C)C(=O)C(OC(=O)c3ccco3)C3=C(C)C(OC(=O)C(O)C(NC(=O)OC(C)(C)C)C(C)C)CC(O)(C(OC(=O)c4ccccc4)C21)C3(C)C` (centres unmarked) [Compound 2181] cannot be ordered by IC50: under 1 nM for the first, under 10 nM for the second.

`CC(=O)O[C@@]12CO[C@@H]1C[C@H](O)[C@@]1(C)C(=O)[C@H](OC(=O)C3CC3)C3=C(C)[C@@H](OC(=O)[C@H](O)[C@@H](NC(=O)OCC(C)C)c4ccsc4)C[C@@](O)([C@@H](OC(=O)c4ccccc4)C12)C3(C)C` (some centres unmarked) [Compound 5011] and `CCOC(=O)N[C@@H](c1ccco1)[C@@H](O)C(=O)O[C@H]1C[C@@]2(O)[C@@H](OC(=O)c3ccccc3)C3[C@](C)(C(=O)[C@H](OC(=O)C4CC4)C(=C1C)C2(C)C)[C@@H](O)C[C@H]1OC[C@@]31OC(C)=O` (some centres unmarked) [Compound 3677] cannot be ordered by IC50: under 10 nM for the first, under 1 nM for the second.

`CCC(=O)O[C@H]1C(=O)[C@@]2(C)C([C@H](OC(=O)c3ccccc3)[C@]3(O)C[C@H](OC(=O)[C@H](O)[C@@H](NC(=O)c4ccco4)c4cccs4)C(C)=C1C3(C)C)[C@]1(OC(C)=O)CO[C@@H]1C[C@@H]2O` (some centres unmarked) [Compound 3053] and `CCCC(=O)N[C@@H](c1ccco1)[C@@H](O)C(=O)O[C@H]1C[C@@]2(O)[C@@H](OC(=O)c3ccccc3)C3[C@](C)(C(=O)[C@H](OC(=O)CC)C(=C1C)C2(C)C)[C@@H](O)C[C@H]1OC[C@@]31OC(C)=O` (some centres unmarked) [Compound 3219] cannot be ordered by IC50: under 1 nM for the first, under 1 nM for the second.

`CC(=O)O[C@@]12CO[C@@H]1C[C@H](O)[C@@]1(C)C(=O)[C@H](OC(=O)C3CC3)C3=C(C)[C@@H](OC(=O)[C@H](O)[C@@H](NC(=O)OC(C)(C)C)c4ccc([N+](=O)[O-])cc4)C[C@@](O)([C@@H](OC(=O)c4ccccc4)C12)C3(C)C` (some centres unmarked) [Compound 0879] and `CCCC(=O)O[C@H]1C(=O)[C@@]2(C)C([C@H](OC(=O)c3ccccc3)[C@]3(O)C[C@H](OC(=O)[C@H](O)[C@@H](NC(=O)OC(C)(C)C)c4ccsc4)C(C)=C1C3(C)C)[C@]1(OC(C)=O)CO[C@@H]1C[C@@H]2O` (some centres unmarked) [Compound 1011] cannot be ordered by IC50: under 1 nM for the first, under 1 nM for the second.

`CC(=O)O[C@@]12CO[C@@H]1C[C@H](O)[C@@]1(C)C(=O)[C@H](OC(=O)C3CC3)C3=C(C)[C@@H](OC(=O)[C@H](O)[C@@H](NC(=O)c4cccnc4)c4cccs4)C[C@@](O)([C@@H](OC(=O)c4ccccc4)C12)C3(C)C` (some centres unmarked) [Compound 4112] and `CC(=O)O[C@@]12CO[C@@H]1C[C@H](O)[C@@]1(C)C(=O)[C@H](OC(=O)C3CC3)C3=C(C)[C@@H](OC(=O)[C@H](O)[C@@H](NC(=O)c4ccccc4)C4CC4)C[C@@](O)([C@@H](OC(=O)c4ccccc4)C12)C3(C)C` (some centres unmarked) [Compound 0923] cannot be ordered by IC50: under 10 nM for the first, under 1 nM for the second.

`CCCC(=O)N[C@@H](c1ccco1)[C@@H](O)C(=O)O[C@H]1C[C@@]2(O)[C@@H](OC(=O)c3ccccc3)C3[C@](C)(C(=O)[C@H](OC(=O)CCC)C(=C1C)C2(C)C)[C@@H](O)C[C@H]1OC[C@@]31OC(C)=O` (some centres unmarked) [Compound 3222] and `CC(=O)OC12COC1CC(O)C1(C)C(=O)C(OC(=O)c3cccs3)C3=C(C)C(OC(=O)C(O)C(NC(=O)OC(C)(C)C)c4cccs4)CC(O)(C(OC(=O)c4ccccc4)C21)C3(C)C` (centres unmarked) [Compound 1900] cannot be ordered by IC50: under 1 nM for the first, under 1 nM for the second.
